# Source: patent publication US20230242585A1, “IMMUNOMODULATORS” (Bristol-Myers Squibb Company, priority 2020, published 2023)
# Starred links: 1 amine or outer side, 2 acyl side, 3 side chain; linkers in the order of their positions; H or OH if unused. Positions of bridges follow the written chain, without caps; N, C: chain ends. Non-standard residues stand in square brackets, D forms with d. Residues, ends and D or L forms follow the SMILES beside them. X39 = O=C([C@H](CNC[C@H](O)[C@@H](O)[C@H](O)C(O)CO[C@H]1O[C@H](CO)[C@H](O)[C@H](O)[C@H]1O)N[*:1])[*:2]; X42 = O=C([C@H](CNC[C@@H](O)C(O)[C@H](O[C@@H]1OC(CO)[C@@H](O)C(O)C1O)C(O)CO)N[*:1])[*:2]; X41 = O=C([C@H](CCNC1[C@@H](O)[C@@H](O)[C@@H](O)[C@H](O)[C@H]1O)N[*:1])[*:2]; X40 = O=C([C@H](CNC1[C@@H](O)[C@@H](O)[C@@H](O)[C@H](O)[C@H]1O)N[*:1])[*:2]; X44 = O=C([C@H](CCNC[C@@H](O)[C@H](O)[C@@H](O)[C@@H](O)CO)N[*:1])[*:2]; X43 = O=C([C@H](CNC[C@@H](O)[C@H](O)[C@@H](O)[C@@H](O)CO)N[*:1])[*:2]; X9 = O=C([C@H](CCNC[C@@H](O)[C@@H](O)[C@@H](O)[C@H](O)CO)N[*:1])[*:2]; X59 = O=C([C@H](CCNC[C@H](O)[C@@H](O)[C@H](O)[C@H](O)CO)N[*:1])[*:2]; X8 = O=C([C@H](CNC[C@@H](O)[C@@H](O)[C@@H](O)[C@H](O)CO)N[*:1])[*:2]; X58 = O=C([C@H](CNC[C@H](O)[C@@H](O)[C@H](O)[C@H](O)CO)N[*:1])[*:2]; Trp(1-CH2COOH) = N[C@@H](Cc1cn(CC(=O)O)c2ccccc12)C(=O)O; X37 = O=C([C@H](CNCC[C@@H](O)C(O)CO)N[*:1])[*:2]; X38 = O=C([C@H](CCNCC[C@H](O)C(O)CO)N[*:1])[*:2]; Hyp = O=C(O)[C@@H]1C[C@@H](O)CN1; NMeNle = CCCC[C@H](NC)C(=O)O; NMeA = CN[C@@H](C)C(=O)O; Dab = NCC[C@H](N)C(=O)O
# Target: T1, PD-1/PD-L1 (Homo sapiens, UniProt Q9NZQ7)
# T1 construct: TVMV protease site (linker) (C); made in house; host or cells: HEK293T cells
# T1 sequence (Q9NZQ7 18-239): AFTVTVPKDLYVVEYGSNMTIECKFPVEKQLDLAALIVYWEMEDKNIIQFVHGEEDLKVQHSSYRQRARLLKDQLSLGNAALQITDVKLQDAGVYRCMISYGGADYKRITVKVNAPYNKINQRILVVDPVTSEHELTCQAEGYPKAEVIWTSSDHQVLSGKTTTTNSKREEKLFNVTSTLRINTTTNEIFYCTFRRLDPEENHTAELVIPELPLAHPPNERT
# Experiment: PD-1/PD-L1 Homogenous Time-Resolved Fluorescence (HTRF) binding assay
# Details: PD-L1-His 10 nM, PD-1-Ig 20 nM
# Procedure, shortened: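 Compounds preincubated 15 min with PD-L1-His (residues 18-239, 10 nM) in dPBS with 0.1% BSA, 0.05% Tween-20, then PD-1-Ig (residues 25-167, 20 nM) for 15 min. Eu-cryptate anti-Ig (1 nM) and APC anti-His (20 nM) equilibrated 30 min; 665/620 nm ratio read, IC50 derived.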
row,IC50,Compound
1,5.3 nM,CCCC[C@H]1C(=O)N(C)[C@@H](CCCC)C(=O)N[C@@H](CC(C)C)C(=O)N[C@H](C(=O)NCC(N)=O)CSCC(=O)N[C@@H](Cc2ccc(O)cc2)C(=O)N(C)[C@@H](C)C(=O)N[C@@H](CC(N)=O)C(=O)N2CCC[C@H]2C(=O)N[C@@H](CNC[C@H](O)[C@@H](O)[C@H](O)[C@H](O)CO)C(=O)N[C@@H](CC(C)C)C(=O)N2C[C@H](O)C[C@H]2C(=O)N[C@@H](Cc2c[nH]c3ccccc23)C(=O)N[C@@H](CCNC[C@H](O)[C@@H](O)[C@H](O)[C@H](O)CO)C(=O)N[C@@H](Cc2cn(CC(=O)O)c3ccccc23)C(=O)N1C [Example 2032] ({CH2CO}-Y[NMeA]NP[X58]L[Hyp]W[X59][Trp(1-CH2COOH)][NMeNle][NMeNle]LCG-NH2; thioether N-14)
2,8.8 nM,CCCC[C@H]1C(=O)N(C)[C@@H](CCCC)C(=O)N[C@@H](CC(C)C)C(=O)N[C@H](C(=O)NCC(N)=O)CSCC(=O)N[C@@H](Cc2ccc(O)cc2)C(=O)N(C)[C@@H](C)C(=O)N[C@@H](CC(N)=O)C(=O)N2CCC[C@H]2C(=O)N[C@@H](CNC2[C@@H](O)[C@@H](O)[C@@H](O)[C@H](O)[C@H]2O)C(=O)N[C@@H](CC(C)C)C(=O)N2C[C@H](O)C[C@H]2C(=O)N[C@@H](Cc2c[nH]c3ccccc23)C(=O)N[C@@H](CCNC2[C@@H](O)[C@@H](O)[C@@H](O)[C@H](O)[C@H]2O)C(=O)N[C@@H](Cc2cn(CC(=O)O)c3ccccc23)C(=O)N1C (stereo partly shown) [Example 2033] ({CH2CO}-Y[NMeA]NP[X40]L[Hyp]W[X41][Trp(1-CH2COOH)][NMeNle][NMeNle]LCG-NH2; thioether N-14)
3,2.7 nM,CCCC[C@H]1C(=O)N(C)[C@@H](CCCC)C(=O)N[C@@H](CC(C)C)C(=O)N[C@H](C(=O)NCC(N)=O)CSCC(=O)N[C@@H](Cc2ccc(O)cc2)C(=O)N(C)[C@@H](C)C(=O)N[C@@H](CC(N)=O)C(=O)N2CCC[C@H]2C(=O)N[C@@H](CNC[C@@H](O)[C@H](O)[C@@H](O)[C@@H](O)CO)C(=O)N[C@@H](CC(C)C)C(=O)N2C[C@H](O)C[C@H]2C(=O)N[C@@H](Cc2c[nH]c3ccccc23)C(=O)N[C@@H](CCNC[C@@H](O)[C@H](O)[C@@H](O)[C@@H](O)CO)C(=O)N[C@@H](Cc2cn(CC(=O)O)c3ccccc23)C(=O)N1C [Example 2034] ({CH2CO}-Y[NMeA]NP[X43]L[Hyp]W[X44][Trp(1-CH2COOH)][NMeNle][NMeNle]LCG-NH2; thioether N-14)
4,4.9 nM,CCCC[C@H]1C(=O)N(C)[C@@H](CCCC)C(=O)N[C@@H](CC(C)C)C(=O)N[C@H](C(=O)NCC(N)=O)CSCC(=O)N[C@@H](Cc2ccc(O)cc2)C(=O)N(C)[C@@H](C)C(=O)N[C@@H](CC(N)=O)C(=O)N2CCC[C@H]2C(=O)N[C@@H](CNC[C@@H](O)[C@@H](O)[C@@H](O)[C@H](O)CO)C(=O)N[C@@H](CC(C)C)C(=O)N2C[C@H](O)C[C@H]2C(=O)N[C@@H](Cc2c[nH]c3ccccc23)C(=O)N[C@@H](CCNC[C@@H](O)[C@@H](O)[C@@H](O)[C@H](O)CO)C(=O)N[C@@H](Cc2cn(CC(=O)O)c3ccccc23)C(=O)N1C [Example 2036] ({CH2CO}-Y[NMeA]NP[X8]L[Hyp]W[X9][Trp(1-CH2COOH)][NMeNle][NMeNle]LCG-NH2; thioether N-14)
5,11 nM,CCCC[C@H]1C(=O)N(C)[C@@H](CCCC)C(=O)N[C@@H](CC(C)C)C(=O)N[C@H](C(=O)NCC(N)=O)CSCC(=O)N[C@@H](Cc2ccc(O)cc2)C(=O)N(C)[C@@H](C)C(=O)N[C@@H](CC(N)=O)C(=O)N2CCC[C@H]2C(=O)N[C@@H](CNC[C@H](O)[C@@H](O)[C@H](O)C(O)CO[C@H]2O[C@H](CO)[C@H](O)[C@H](O)[C@H]2O)C(=O)N[C@@H](CC(C)C)C(=O)N2C[C@H](O)C[C@H]2C(=O)N[C@@H](Cc2c[nH]c3ccccc23)C(=O)N[C@@H](CCN)C(=O)N[C@@H](Cc2cn(CC(=O)O)c3ccccc23)C(=O)N1C (stereo partly shown) [Example 2037] ({CH2CO}-Y[NMeA]NP[X39]L[Hyp]W[Dab][Trp(1-CH2COOH)][NMeNle][NMeNle]LCG-NH2; thioether N-14)
6,6.7 nM,CCCC[C@H]1C(=O)N(C)[C@@H](CCCC)C(=O)N[C@@H](CC(C)C)C(=O)N[C@H](C(=O)NCC(N)=O)CSCC(=O)N[C@@H](Cc2ccc(O)cc2)C(=O)N(C)[C@@H](C)C(=O)N[C@@H](CC(N)=O)C(=O)N2CCC[C@H]2C(=O)N[C@@H](CNCC[C@@H](O)C(O)CO)C(=O)N[C@@H](CC(C)C)C(=O)N2C[C@H](O)C[C@H]2C(=O)N[C@@H](Cc2c[nH]c3ccccc23)C(=O)N[C@@H](CCNCC[C@H](O)C(O)CO)C(=O)N[C@@H](Cc2cn(CC(=O)O)c3ccccc23)C(=O)N1C (stereo partly shown) [Example 2038] ({CH2CO}-Y[NMeA]NP[X37]L[Hyp]W[X38][Trp(1-CH2COOH)][NMeNle][NMeNle]LCG-NH2; thioether N-14)
7,5.2 nM,CCCC[C@H]1C(=O)N(C)[C@@H](CCCC)C(=O)N[C@@H](CC(C)C)C(=O)N[C@H](C(=O)NCC(N)=O)CSCC(=O)N[C@@H](Cc2ccc(O)cc2)C(=O)N(C)[C@@H](C)C(=O)N[C@@H](CC(N)=O)C(=O)N2CCC[C@H]2C(=O)N[C@@H](CNC[C@@H](O)C(O)[C@H](O[C@@H]2OC(CO)[C@@H](O)C(O)C2O)C(O)CO)C(=O)N[C@@H](CC(C)C)C(=O)N2C[C@H](O)C[C@H]2C(=O)N[C@@H](Cc2c[nH]c3ccccc23)C(=O)N[C@@H](CCN)C(=O)N[C@@H](Cc2cn(CC(=O)O)c3ccccc23)C(=O)N1C (stereo partly shown) [Example 2039] ({CH2CO}-Y[NMeA]NP[X42]L[Hyp]W[Dab][Trp(1-CH2COOH)][NMeNle][NMeNle]LCG-NH2; thioether N-14)
